Legend:
MCF-7 (breast cancer) = assay: CCK-8 cell viability, MCF-7; assay type: cell-based; details: Homo sapiens, MCF7, 72 h
Method: (§1) To assess the cytotoxic potential of the newly synthesized compounds c1–c20, a panel of human tumor cell lines—including Huh-7 (hepatocellular carcinoma), MCF-7 (breast cancer), and A549 (lung cancer)—was treated with each compound at a concentration of 50 μM for 72 h. Cell viability and cytotoxicity were evaluated using the CCK-8 assay.
(§2) Cells were cultured in DMEM or RPMI 1640 medium with 10% FBS and 1% penicillin/streptomycin at 37 °C and 5% CO2. A CCK-8 assay was performed with several human cancer cell lines, including A549, Huh-7, MCF-7, HCT-116, and SKOV3, according to the instructions. Cells were plated at a density of 1,000–3,000 cells per well in a 96-well plate. After 24-h incubation, cells were treated with 40 μM compounds for 48 h or 50 μM compounds for 72 h. Cell viability was measured by adding 10 μL per well of CCK-8 reagent, which was dissolved in the cell culture medium, for 1 hour. Absorbance was taken at 450 nm using a microplate reader. The IC50 values of the compounds were further determined. Cells were seeded in a 96-well plate at a density of 1 × 10^3 cells/well. After adhering overnight, cells treated with […] concentrations (10 μM, 20 μM, 40 µM, or 80 μM) were used to draw the dose–response curve, and IC50 values were calculated by GraphPad Prism software. The CCK-8 assay was performed in triplicate, and each experiment was repeated at least three times. The results were expressed as mean ± SEM, and P < 0.05 was considered statistically significant.

A549 (lung cancer) = assay: CCK-8 cell viability, A549; assay type: cell-based; details: Homo sapiens, 72 h
Method: as §1, §2

[1] = CCK-8 cell viability, L02; assay type: cell-based; details: human, L02 normal liver cells
Huh-7 cells [2] = assay: Annexin V-FITC/PI apoptosis flow cytometry; assay type: cell-based, human; details: Huh-7, 10, 20 or 30 μM, 72 h
Method: Apoptosis, a programmed form of cell death, was investigated to understand the molecular mechanisms behind the anti-proliferative effects of the novel compounds. Huh-7 cells were treated with various concentrations (10 μM, 20 μM, or 30 μM) of compounds c5, c14, c16, and c18 for 72 h. The cells were then stained with Annexin V-FITC and propidium iodide (PI) and analyzed by flow cytometry to determine the proportion of apoptotic cells.
Cells were plated at a density of 3 × 10^5 cells per well in a 6-well plate. Different concentrations of compounds were added to cells for 72 h. Then, cells were collected and washed with PBS. Annexin V-FITC and propidium iodide were then added to stained cells for 20 min. Apoptotic cells were quantified by a flow cytometer, and raw data were further analyzed by Flow Jo software v10. Values were expressed as mean ± SEM. Statistical significance was assessed using one-way ANOVA followed by the Student–Newman–Keuls test. P < 0.05 was considered statistically significant. Data were visualized using GraphPad Prism.

Huh-7 cells [3] = assay: Calcein AM/PI live/dead viability assay; assay type: cell-based, human; details: Huh-7, 10, 20 or 30 μM, 24 h
Method: To evaluate the anti-proliferative effects of 2H-1,4-benzoxazin-3(4H)-one linked 1,2,3-triazole derivatives, live/dead cell staining was performed using Calcein AM and PI on Huh-7 cells. The cells were treated with different concentrations (10 μM, 20 μM, or 30 μM) of compounds c5, c14, c16, and c18 for 24 h. Living cells were stained green by Calcein AM, while dead cells were stained red by PI.
FIGURE 4 Compounds c5, c14, c16, and c18 increased dead cells and decreased living cells. (A–D) Huh-7 cells were treated with different concentrations of compounds c5, c14, c16, and c18 (10 μM, 20 μM, or 30 μM) for 24 h. Living and dead cells were stained with Calcein AM and PI, respectively, and then observed by confocal microscopy. Data were presented as means ± SEM; *P < 0.05.
A live and dead viability assay was performed using the Calcein/PI Live/Dead Viability Assay Kit. Cells were plated at a density of 2 × 10^3 cells per well in a 96-well plate to adhere overnight. Then, compounds were added with different concentrations for 24 h. The medium was replaced with cell culture medium containing Calcein AM and propidium iodide for 30 min at 37 °C in the dark. Cells were then observed and photographed by confocal microscopy.

Huh-7 cells [4] = assay: Western blot protein expression; assay type: cell-based, human; details: Huh-7, 72 h (Figure 6 legend 24 h), 20 or 30 μM
Method: To further examine the regulatory effects of 2H-1,4-benzoxazin-3(4H)-one linked 1,2,3-triazole derivatives on protein expression, Huh-7 cells were treated with compounds c5, c14, c16, and c18 for 72 h, after which whole-cell protein lysates were collected for analysis.
FIGURE 6 Compounds c5, c14, c16, and c18 affected DNA damage and autophagy. (A–D) Huh-7 cells were treated with different concentrations of compounds c5, c14, c16, and c18 (20 or 30 μM) for 24 h. Protein expressions were analyzed by Western blot. Top: Western blot; bottom: quantitative measurements relative to ACTIN. Data were presented as means ± SEM; *P < 0.05.
Antibodies used in Western blot were as follows: caspase3, caspase9, LC3, γ-H2AX, PARP, cyclin D, cyclin E, β-catenin (all from Cell Signaling Technology, United States), and β-actin (Sigma, United States). Cells were treated with compounds (0 μM, 5 μM, 10 μM, 20 μM, or 30 μM) for 72 h, and the whole-cell proteins were collected using RIPA buffer containing protease/phosphatase inhibitor cocktail. The protein expressions were measured and analyzed using Western blot. Values were expressed as mean ± SEM. Statistical significance was assessed using a two-tailed Student’s t-test. P < 0.05 was considered statistically significant. Data were visualized using GraphPad Prism.

## O=C1COc2cc(NC(=O)c3cccc(-c4cn(Cc5ccc(Br)cc5)nn4)c3)ccc2N1 [compound c5, 3-(1-(4-bromobenzyl)-1H-1,2,3-triazol-4-yl)-N-(3-oxo-3,4-dihydro-2H-benzo[b][1,4]oxazin-7-yl)benzamide]
MCF-7 (breast cancer)
  viability at 50 µM: 107 ± 2.85%
A549 (lung cancer)
  viability at 50 µM: 90.8 ± 5.32%
[1]
  viability at 72 h, 50 µM: 101 ± 3.35%
Huh-7 cells [2]
  Apoptosis (proportion of apoptotic cells): significant, dose-dependent increases
Huh-7 cells [3]
  Dead cells (PI) in live/dead staining: dose-dependent increase
Huh-7 cells [4]
  H2AX protein expression: upregulated
  LC3 protein expression: significantly induced
  PARP protein expression: upregulated
  caspase-3 protein expression: upregulated
  cyclin D protein expression: downregulated

## O=C1COc2cc(NC(=O)c3cccc(-c4cn(Cc5cccc(F)c5)nn4)c3)ccc2N1 [compound c14, 3-(1-(3-fluorobenzyl)-1H-1,2,3-triazol-4-yl)-N-(3-oxo-3,4-dihydro-2H-benzo[b][1,4]oxazin-7-yl)benzamide]
MCF-7 (breast cancer)
  viability at 50 µM: 106 ± 1.48%
A549 (lung cancer)
  viability at 50 µM: 77.5 ± 3.1%
[1]
  viability at 72 h, 50 µM: 116 ± 1.18%
Huh-7 cells [2]
  Apoptosis (proportion of apoptotic cells): significant, dose-dependent increases
Huh-7 cells [3]
  Dead cells (PI) in live/dead staining: dose-dependent increase
Huh-7 cells [4]
  H2AX protein expression: upregulation
  LC3 protein expression: upregulation
  PARP protein expression: upregulation
  cyclin D protein expression: downregulation

## O=C1COc2cc(NC(=O)c3cccc(-c4cn(Cc5ccc(C(F)(F)F)cc5)nn4)c3)ccc2N1 [compound c16, N-(3-oxo-3,4-dihydro-2H-benzo[b][1,4]oxazin-7-yl)-3-(1-(4-(trifluoromethyl)benzyl)-1H-1,2,3-triazol-4-yl)benzamide]
MCF-7 (breast cancer)
  viability at 50 µM: 101.6 ± 0.92%
A549 (lung cancer)
  viability at 50 µM: 76.8 ± 4.31%
[1]
  viability at 72 h, 50 µM: 117 ± 1.41%
Huh-7 cells [2]
  Apoptosis (proportion of apoptotic cells): significant, dose-dependent increases
Huh-7 cells [3]
  Dead cells (PI) in live/dead staining: dose-dependent increase
Huh-7 cells [4]
  H2AX protein expression: upregulation
  LC3 protein expression: upregulation
  PARP protein expression: upregulation
  cyclin D protein expression: downregulation

## O=C1COc2cc(NC(=O)c3cccc(-c4cn(Cc5ccc(Cl)cc5)nn4)c3)ccc2N1 [compound c18, 3-(1-(4-chlorobenzyl)-1H-1,2,3-triazol-4-yl)-N-(3-oxo-3,4-dihydro-2H-benzo[b][1,4]oxazin-7-yl)benzamide]
MCF-7 (breast cancer)
  viability at 50 µM: 103 ± 1.83%
A549 (lung cancer)
  viability at 50 µM: 89.8 ± 2.89%
[1]
  viability at 72 h, 50 µM: 117 ± 1.27%
Huh-7 cells [2]
  Apoptosis (proportion of apoptotic cells): significant, dose-dependent increases
Huh-7 cells [3]
  Dead cells (PI) in live/dead staining: dose-dependent increase
Huh-7 cells [4]
  H2AX protein expression: upregulation
  LC3 protein expression: upregulation
  PARP protein expression: upregulation
  cyclin D protein expression: downregulation

From publication PMC12394750, “2H-1,4-Benzoxazin-3(4H)-one linked 1,2,3-triazole derivatives and their study on inducing DNA damage in tumor cells” (Frontiers in Pharmacology, 2025)
